Measurements published in US20180289713A1, “COMPOUNDS FOR TREATING AMYOTROPHIC LATERAL SCLEROSIS” (Hoffmann-La Roche Inc., priority 2015, published 2018).

Test system: SMN protein in SMA patient fibroblast cells
Test: SMN protein assay in cultured cells (SMN HTRF)
Type: cell-based, human
Settings: concentration producing 1.5 times SMN protein vs vehicle; SMA patient fibroblasts, 48 hours, 7-point curve
From the text: The term “EC1.5× concentration for SMN protein expression” (or “EC1.5× SMN protein”) is defined as that concentration of test compound that is effective in producing 1.5 times the amount of SMN protein in an SMA patient fibroblast cell compared to the amount produced from the vehicle control.
The SMN HTRF (homogeneous time resolved fluorescence) assay is used to quantify the level of SMN protein in SMA patient fibroblast cells treated with test compounds. Materials used and respective sources are listed below in Table 3.
Cells are thawed and cultured in DMEM-10% FBS for 72 hours. Cells are trypsinized, counted and re-suspended to a concentration of 25,000 cells/mL in DMEM-10% FBS. The cell suspensions are plated at 5,000 cells per well in a 96 well microtiter plate and incubated for 3 to […]. Test compounds are serially diluted 3.16-fold in 100% DMSO to generate a 7-point concentration curve. 1 μL of test compound solution is transferred to cell-containing wells and cells are incubated for 48 hours in a cell culture incubator (37° C., 5% CO2, 100% relative humidity). Triplicate samples are set up for each test compound concentration. After 48 hours, the supernatant is removed from the wells and 25 μL of the RIPA lysis buffer, containing protease inhibitors, is added to the wells and incubated with shaking at room temperature for 1 hour. 25 μL of the diluent is added and then 35 μL of the resulting lysate is transferred to a 384-well plate, where each well contains 5 μL of the antibody solution (1:100 dilution of anti-SMN d2 and anti-SMN kryptate in SMN reconstitution buffer). The plate is centrifuged for 1 minute to bring the solution to the bottom of the wells, then incubated overnight at room temperature. Fluorescence for each well of the plate at 665 nm and 620 nm is measured on an EnVision multilabel plate reader (Perkin-Elmer).
The normalized fluorescence signal is calculated for each sample, Blank and vehicle control well by dividing the signal at 665 nm by the signal at 620 nm. Normalizing the signal accounts for possible fluorescence quenching due to the matrix effect of the lysate. The ΔF value (a measurement of SMN protein abundance as a percent value) for each sample well is calculated by subtracting the normalized average fluorescence for the Blank control wells from the normalized fluorescence for each sample well, then dividing this difference by the normalized average fluorescence for the Blank control wells and multiplying the resulting value by 100. The ΔF value for each sample well represents the SMN protein abundance from test compound-treated samples. The ΔF value for each sample well is divided by the ΔF value for the vehicle control wells to calculate the fold increase in SMN protein abundance relative to the vehicle control. Table 4 provides EC1.5× concentrations for SMN protein expression that was obtained from the 7-point concentration data generated according to the above procedure for particular compounds of the present invention.
Table 5 provides the maximum fold increase of SMN protein that was obtained from the 7-point concentration data generated according to the above procedure for particular compounds of the present invention

Row | SMILES | EC1.5x SMN protein
1 | Cc1cn2nc(-c3cc(=O)n4cc(N5CCN6CCC[C@@]6(C)C5)ccc4n3)cc(C)c2n1 [Example 5, 7-[(8aS)-8a-methyl-1,3,4,6,7,8-hexahydropyrrolo[1,2-a]pyrazin-2-yl]-2-(2,8-dimethylimidazo[1,2-b]pyridazin-6-yl)pyrido[1,2-a]pyrimidin-4-one] | 4.1 nM
2 | Cc1cn2nc(-c3cc(=O)n4cc(N5CCN6CCC[C@]6(C)C5)ccc4n3)cc(C)c2n1 [Example 6, 7-[(8aR)-8a-methyl-1,3,4,6,7,8-hexahydropyrrolo[1,2-a]pyrazin-2-yl]-2-(2,8-dimethylimidazo[1,2-b]pyridazin-6-yl)pyrido[1,2-a]pyrimidin-4-one] | 11 nM
3 | Cc1cn2nc(-c3cc(=O)n4cc(N5CCN[C@@H](C)C5)ccc4n3)cc(C)c2n1 [Example 8, 2-(2,8-dimethylimidazo[1,2-b]pyridazin-6-yl)-7-[(3S)-3-methylpiperazin-1-yl]pyrido[1,2-a]pyrimidin-4-one] | 5.9 nM
4 | Cc1cn2nc(-c3cc(=O)n4cc(N5CCN[C@H](C)C5)ccc4n3)cc(C)c2n1 [Example 9, 2-(2,8-dimethylimidazo[1,2-b]pyridazin-6-yl)-7-[(3R)-3-methylpiperazin-1-yl]pyrido[1,2-a]pyrimidin-4-one] | 2.5 nM
5 | Cc1cn2nc(-c3cc(=O)n4cc(N5CCN[C@@H](C)C5)ccc4n3)ccc2n1 [Example 11, 2-(2-methylimidazo[1,2-b]pyridazin-6-yl)-7-[(3S)-3-methylpiperazin-1-yl]pyrido[1,2-a]pyrimidin-4-one] | 7 nM
6 | Cc1cn2nc(-c3cc(=O)n4cc(N5CCN[C@H](C)C5)ccc4n3)ccc2n1 [Example 12, 2-(2-methylimidazo[1,2-b]pyridazin-6-yl)-7-[(3R)-3-methylpiperazin-1-yl]pyrido[1,2-a]pyrimidin-4-one] | 7.5 nM
7 | Cc1cn2nc(-c3cc(=O)n4cc(N5CCCNCC5)ccc4n3)ccc2n1 [Example 13, 7-(1,4-diazepan-1-yl)-2-(2-methylimidazo[1,2-b]pyridazin-6-yl)pyrido[1,2-a]pyrimidin-4-one] | 3 nM
8 | Cc1cn2nc(-c3cc(=O)n4cc(N5CCN6CCC[C@@]6(C)C5)ccc4n3)ccc2n1 [Example 16, 7-[(8aS)-8a-methyl-1,3,4,6,7,8-hexahydropyrrolo[1,2-a]pyrazin-2-yl]-2-(2-methylimidazo[1,2-b]pyridazin-6-yl)pyrido[1,2-a]pyrimidin-4-one] | 3 nM
9 | Cc1cn2nc(-c3cc(=O)n4cc(N5CC[C@@H](N6CCCC6)C5)ccc4n3)cc(C)c2n1 [Example 18, 2-(2,8-dimethylimidazo[1,2-b]pyridazin-6-yl)-7-[(3R)-3-pyrrolidin-1-ylpyrrolidin-1-yl]pyrido[1,2-a]pyrimidin-4-one] | 25 nM
10 | Cc1cn2nc(-c3cc(=O)n4cc(N5CCNC6(CC6)C5)ccc4n3)cc(C)c2n1 [Example 20, 7-(4,7-diazaspiro[2.5]octan-7-yl)-2-(2,8-dimethylimidazo[1,2-b]pyridazin-6-yl)pyrido[1,2-a]pyrimidin-4-one] | 37 nM
11 | Cc1cn2nc(-c3cc(=O)n4cc(N5CCN[C@@H](C)C5)cc(C)c4n3)cc(C)c2n1 [Example 24, 2-(2,8-dimethylimidazo[1,2-b]pyridazin-6-yl)-9-methyl-7-[(3S)-3-methylpiperazin-1-yl]pyrido[1,2-a]pyrimidin-4-one] | 4.7 nM
12 | Cc1cn2nc(-c3cc(=O)n4cc(N5C[C@H](C)N[C@@H](C)C5)ccc4n3)cc(C)c2n1 [Example 29, 2-(2,8-dimethylimidazo[1,2-b]pyridazin-6-yl)-7-[(3S,5S)-3,5-dimethylpiperazin-1-yl]pyrido[1,2-a]pyrimidin-4-one] | 2.1 nM
13 | Cc1cn2nc(-c3cc(=O)n4cc(N5C[C@H](C)N[C@@H](C)C5)ccc4n3)ccc2n1 [Example 32, 7-[(3S,5S)-3,5-dimethylpiperazin-1-yl]-2-(2-methylimidazo[1,2-b]pyridazin-6-yl)pyrido[1,2-a]pyrimidin-4-one] | 4 nM
14 | Cc1cn2nc(-c3cc(=O)n4cc(N5CCN[C@@H](C)C5)cc(C)c4n3)ccc2n1 [Example 33, 9-methyl-2-(2-methylimidazo[1,2-b]pyridazin-6-yl)-7-[(3S)-3-methylpiperazin-1-yl]pyrido[1,2-a]pyrimidin-4-one] | 4 nM
15 | Cc1cn2nc(-c3cc(=O)n4cc(N5CCN[C@H](C)C5)cc(C)c4n3)ccc2n1 [Example 34, 9-methyl-2-(2-methylimidazo[1,2-b]pyridazin-6-yl)-7-[(3R)-3-methylpiperazin-1-yl]pyrido[1,2-a]pyrimidin-4-one] | 4.4 nM
16 | Cc1cn2nc(-c3cc(=O)n4cc(N5CCNC6(CC6)C5)cc(C)c4n3)ccc2n1 [Example 37, 7-(4,7-diazaspiro[2.5]octan-7-yl)-9-methyl-2-(2-methylimidazo[1,2-b]ipyridazin-6-yl)pyrido[1,2-a]pyrimidin-4-one] | 45 nM
17 | Cc1cn2nc(-c3cc(=O)n4cc(N5C[C@H](C)N[C@@H](C)C5)cc(C)c4n3)ccc2n1 [Example 38, 7-[(3S,5S)-3,5-dimethylpiperazin-1-yl]-9-methyl-2-(2-methylimidazo[1,2-b]pyridazin-6-yl)pyrido[1,2-a]pyrimidin-4-one] | 3.1 nM
